In assay [1] the target is T1, recombinant human TRPV1 (hTRPV1) (Homo sapiens, UniProt Q8NER1). On the set-up: expressed in transfected cells; method as in PMID 23932918, PMID 30496739. The note with it: previously reported; cited from earlier work.
The target of assay [2] is T1, recombinant human TRPV1 (hTRPV1). In words: TRPV1 channel assay: intracellular Ca2+ elevation (Fluo-4) in HEK-293 cells overexpressing hTRPV1. It is filed as cell-based. Also noted: expressed in transfected cells; host or cells: HEK-293 cells, stably transfected, selected with Geneticin.

Data on 3 compounds can be found in PMC8016363, “Discovery of a Remarkable Methyl Shift Effect in the Vanilloid Activity of Triterpene Amides” (Journal of Natural Products, 2020).

T1 sequence (Q8NER1 whole entry): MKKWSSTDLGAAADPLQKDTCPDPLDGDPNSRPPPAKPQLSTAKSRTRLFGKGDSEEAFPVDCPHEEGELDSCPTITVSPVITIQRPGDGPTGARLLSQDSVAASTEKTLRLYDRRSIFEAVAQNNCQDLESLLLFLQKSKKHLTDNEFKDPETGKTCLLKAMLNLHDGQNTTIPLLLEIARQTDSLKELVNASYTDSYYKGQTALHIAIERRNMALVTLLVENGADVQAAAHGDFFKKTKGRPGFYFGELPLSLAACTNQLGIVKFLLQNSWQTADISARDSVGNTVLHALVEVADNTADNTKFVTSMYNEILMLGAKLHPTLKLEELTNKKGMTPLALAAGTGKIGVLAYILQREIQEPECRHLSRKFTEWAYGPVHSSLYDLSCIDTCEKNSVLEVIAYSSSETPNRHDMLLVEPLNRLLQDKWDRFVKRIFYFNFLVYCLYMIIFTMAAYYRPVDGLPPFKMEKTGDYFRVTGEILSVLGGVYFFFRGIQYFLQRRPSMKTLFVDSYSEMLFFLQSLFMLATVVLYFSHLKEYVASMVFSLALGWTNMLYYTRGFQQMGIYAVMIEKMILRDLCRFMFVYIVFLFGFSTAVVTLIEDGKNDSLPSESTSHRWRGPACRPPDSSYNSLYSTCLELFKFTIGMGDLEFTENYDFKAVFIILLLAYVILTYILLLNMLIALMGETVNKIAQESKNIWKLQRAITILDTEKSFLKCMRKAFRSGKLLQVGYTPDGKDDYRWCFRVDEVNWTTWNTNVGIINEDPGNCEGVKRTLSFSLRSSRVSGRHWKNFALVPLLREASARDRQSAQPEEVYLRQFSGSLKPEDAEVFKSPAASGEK

`C[C@H]1[C@H](C)CC[C@]2(C(=O)O)CC[C@]3(C)C(=CC[C@@H]4[C@@]5(C)CC[C@H](O)C(C)(C)[C@@H]5CC[C@]43C)[C@H]12` [3a, ursolic acid]: the “behaviour at TRPV1 (in words)” value in assay [1] is recorded as “weak antagonists”.

For the compound `CC1(C)CC[C@]2(C(=O)O)CC[C@]3(C)C(=CC[C@@H]4[C@@]5(C)CC[C@H](O)C(C)(C)[C@@H]5CC[C@]43C)[C@@H]2C1` [2a, oleanolic acid], the “behaviour at TRPV1 (in words)” value in assay [1] was “weak antagonists”. Further, in assay [2] (HEK293, read-out: inhibition of the capsaicin response), the inhibition (in general, the percentage by which the read-out fell short of the control) at 25 µM was determined as 20 ± 3%.

For `COc1cc(CNC(=O)[C@]23CC[C@@H](C)[C@H](C)[C@H]2C2=CC[C@@H]4[C@@]5(C)CC[C@H](O)C(C)(C)[C@@H]5CC[C@@]4(C)[C@]2(C)CC3)ccc1O` [3b, Ursoloyl vanillamide], the “efficacy (relative to ionomycin 4 μM)” value in assay [2] (HEK-293 cells stably transfected with hTRPV1, [Ca2+]i increase normalized to the response to ionomycin 4 μM) worked out at 16 ± 1. In addition, the EC50 – broadly, the concentration that produces a half-maximal response – in assay [2] (HEK-293 cells stably transfected with hTRPV1, half-maximal increase in [Ca2+]i, read-out: potency EC50) was determined as 5.4 ± 2.3 µM. For the same compound, in assay [2] (read-out: IC50 (capsaicin 0.1 μM), HEK-293-hTRPV1, compound added 5 min before capsaicin 100 nM, capsaicin alone = 100%), the IC50 (commonly the point on the concentration scale where inhibition reaches its midpoint) is 7.5 ± 0.7 µM.
